Measurements reported in US6265423A, “Aromatic polycyclic retinoid-type derivatives, method for preparing same, and use thereof for making pharmaceutical and cosmetic compositions” (priority 1996, dated 2001).
Like-named read-outs stand apart in the source and are kept apart here.

Experiments:
[1] = test system: T-47D human mammary cancer cells; experiment: MTT test, proliferation of T-47D; format: cell-based; conditions: for activity at 100 µM / activity at 1 µM / activity at 0.01 µM: Homo sapiens, T47D, 72 h, read-out: level of proliferation; for effect on cellular increase, T-47D (in words): MTT test
Summary of the method: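 After 24 h seeding, cells in MEM with 5% decomplemented FCS at 37° C were exposed to compound at 10^-8 M, 10^-6 M and 10^-4 M. Viability was assessed by MTT reduction to formazan, dissolved in DMSO. Mean optical density is expressed as % of untreated control (100%), in 6 duplicates.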

[2] = test system: ERE-βGlob-Luc, MELN lineage (MCF-7); experiment: Anti-oestrogenic effect, MELN lineage activated by estradiol; format: cell-based, human; conditions: for inhibition: 10^-6 M; for anti-oestrogenic effect (in words): estradiol-activated MELN cells
Summary of the method: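 MCF-7-derived MELN cells stably carry luciferase driven by chicken vitellogenin A2 ERE and βGlobin promoter; stimulated with 10^-9 M estradiol, run in duplicate. Basal activity is set with 1 μM 4-OH-tamoxifen and subtracted. Effect expressed as percentage.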

[3] = test system: A-427 human pulmonary cancer cells; experiment: MTT test, proliferation of A-427; conditions: for activity at 100 µM / activity at 0.01 µM / activity at 1 µM: Homo sapiens, A-427, 72 h, read-out: level of proliferation; for effect on cellular increase, A-427 (in words): MTT test
[4] = test system: AP-1, MTLN lineage (MCF-7); experiment: Anti-AP-1 effect, MTLN lineage activated by TPA; format: cell-based, human; conditions: for inhibition at 0.01 µM / inhibition at 1 µM / inhibition at 0.1 µM: Homo sapiens; for inhibition at 1 µM: 10^-6 M; for anti-AP-1 effect (in words): TPA-activated MTLN cells
Summary of the method: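 MCF-7-derived MTLN cells stably carrying a p(TRE)3-tk-Luc reporter, activated with 10^-7 M TPA, run in duplicate. Luciferase inhibition by compounds given as percentage after subtracting basal cell activity, reported as a range from several experiments.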

[5] = test system: RARα-ERcassette; experiment: Transactivation, chimerical receptor RARα-ERcassette (HeLa); format: cell-based; conditions: TTNPB 10^-8 M = 100
Text: (§1) The HeLa cells are co-transfected by a plasmid which codes for a retinoic receptor in which the C domain of bonding to the DNA is substituted by that of the receptor to RE oestrogens, and a plasmid which places the expression of the luciferase under the control of an ERE (Element of Response to Oestrogens). The expressed chimerical receptors are designated as RARα-ERcassette, RARβ-ERcassette, RARγ-ERcassette and RXRα-ERcassette. The A, B, D, E and F regions of the natural receptor are preserved as well as the transcriptional co-operation between the activation domains AF-1 and AF-2. These transitory transfection experiments follow the method of co-precipitation to calcium phosphate. The HeLa cells are co-transfected by […] of plasmid coding for the chimerical receptor, […] of reporter plasmid and […] of expression vector CMV-β-galactosidase used as an internal control of transfection. 24 hours after the transfection, the cells are incubated for 16 hours with the different effectors.
(§2) In this type of chimerical receptor, the C domain of bonding to the DNA of RAR is substituted by that of the receptor to the RE oestrogens. The protein obtained is close to the natural RAR receptor and preserves the transcriptional properties of the AF-1 and AF-2 domains. It modulates the transcription by means of an ERE. This RAR-ERcassette model allows one to observe a transcriptional response to a more physiological ligand.

[6] = test system: RAR-ERcassettes (RARα, RARβ, RARγ); experiment: Chimerical receptors RAR-ERcassettes, overall profile; format: cell-based
Text: as §1, §2

[7] = test system: Gal4-RARα; experiment: Transactivation, chimerical receptor Gal4-RARα (transitory transfection of HeLa); format: cell-based; conditions: 100% = TTNPB 10^-8 M
[8] = Homo sapiens, MCF7, read-out: anti-oestrogenic effect, inhibition
[9] = MCF7, read-out: anti-AP-1 effect, inhibition
[10] = Homo sapiens, MCF7, cells activated by 10^-9 M estradiol
[11] = Homo sapiens, MCF7, 10^-7 M, cells activated by 10^-9 M estradiol, read-out: anti-oestrogenic effect, inhibition
[12] = Homo sapiens, MCF7, 10^-8 M, cells activated by 10^-9 M estradiol, read-out: anti-oestrogenic effect, inhibition
[13] = MCF7, cells activated by 10^-7 M TPA, range of several experiments
[14] = MCF7, 10^-7 M, cells activated by 10^-7 M TPA, range of several experiments, read-out: anti-AP-1 effect, inhibition

| Structure (SMILES) | activity at 100 µM ([1]; T-47D, 10^-4 M, control = 100%) | activity at 1 µM ([1]; T-47D, 10^-6 M, control = 100%) | activity at 0.01 µM ([1]; T-47D, 10^-8 M, control = 100%) | effect on cellular increase, T-47D (in words) [1] | activity at 100 µM [3] | RAR-ERcassette RARα transactivation ([5]; 10^-6 M) | RAR-ERcassette RARα transactivation ([5]; 10^-7 M) | RAR-ERcassette RARα transactivation ([5]; 10^-8 M) | RAR-ERcassette profile (in words) [6] | inhibition [2, 10] | inhibition at 0.1 µM [2, 11] | activity at 0.01 µM [3] | activity at 1 µM [3] | anti-oestrogenic effect (in words) [2] | GAL4-RAR RARα transactivation ([7]; 10^-6 M) | inhibition at 1 µM [4, 13] | inhibition at 0.1 µM [4, 14] | anti-AP-1 effect (in words) [4] | other results |
| --- | --- | --- | --- | --- | --- | --- | --- | --- | --- | --- | --- | --- | --- | --- | --- | --- | --- | --- | --- |
| CC(C=C/C=C(C)\C=C\C1=C(C)CCCC1(C)C)=CC(=O)O [CB13407, 9-cis retinoic acid, reference compound] | 16.3% | 91.7% | 122% | stimulates the cellular increase at 10^-6 M and 10^-8 M | 5.9% | 348% | 187% | 60% | induce an over-expression of luciferase in comparison to the induction brought about by a synthetic compound (TTNPB) | – | – | – | – | – | – | – | – | – | inhibition at 0.1 µM [2, 8]: 35%; inhibition at 0.01 µM [4, 9]: 30 to 37%; RAR-ERcassette RARα transactivation ([5]; 10^-9 M): 7% |
| C/C(=C\c1ccc2c(c1)C(C)(C)CCC2(C)C)c1ccc(C(=O)Nc2nnn[nH]2)cc1 [CB73364] | 0% | 53% | 62% | inhibits the increase of the T-47D cells | 0.1% | 74% | – | – | – | 20 to 41% | 24% | 92.7% | 87.2% | – | – | – | – | – | inhibition at 0.01 µM [2, 12]: 13% |
| C/C(=C/c1ccc2c(c1)C(C)(C)CCC2(C)C)c1ccc(C(=O)O)nc1 [CB16279, (Z) 5-[1-(5,6,7,8-tetrahydro-5,5,8,8-tetramethyl-2-naphthalenyl)-2-propenyl]pyridinyl-2-carboxylic acid] | – | – | – | – | – | 60% | 6% | – | induce a transactivation mediated by the three receptors | 32% | – | – | – | permit a transrepression of a controlled gene by an ERE | 33% | 23 to 26% | – | – | – |
| C/C(=C\c1ccc(C(=O)O)cc1)c1ccc2c(c1)C(C)(C)CCC2(C)C [TTNPB, reference compound] | 3.5% | 61.7% | 58.5% | inhibit the cellular increase of the two mammary lineages at the concentrations tested | 3.6% | – | – | – | – | – | – | 78.9% | 78.5% | – | – | – | – | – | inhibition at 0.01 µM [2, 8]: 30 to 41%; anti-oestrogenic effect, inhibition (of the order of) ([2]; MELN, estradiol 10^-9 M): ~40%; effect on cellular increase, A-427 (in words) [3]: inhibits the A-427 lineage at 10^-6 M and 10^-8 M; inhibition at 0.01 µM [4, 9]: 26 to 53%; inhibition at 0.1 µM [4, 9]: 29 to 54% |
| C/C(=C/c1ccc2c(c1)C(C)(C)CCC2(C)C)c1ccc(C(=O)O)cc1 [CB28628, reference compound] | 4% | 59.3% | 93.2% | – | 2.5% | 179% | 95% | 35% | complete agonist for RARγ-ERcassetteand induce an over-activation of RARα-ERcassette and RARβ-ERcassette at 1 μM | 29 to 41% | 31% | 86.7% | 86.8% | – | – | 58% | 40% | exhibits a strong anti-AP-1 effect on the MCF-7 cells | GAL4-RAR RARα transactivation ([7]; 10^-7 M): 103% |
| C/C(=C/c1ccc2c(c1)C(C)(C)CCC2(C)C)c1ccc(C(=O)O)cn1 [CB38416, (Z) 2-[1-(5,6,7,8-tetrahydro-5,5,8,8-tetramethyl-2-naphthalenyl)-2-propenyl]pyridinyl-5-carboxylic acid] | 42.5% | 82.6% | 119% | – | 24.1% | 65% | 7% | 0% | induce a transactivation mediated by the three receptors | 19% | 0% | 106% | 105% | permit a transrepression of a controlled gene by an ERE | 58% | 21 to 25% | 7 to 14% | – | – |
| CC1(C)CCC(C)(C)c2cc(/C=C(\c3ccc(C(=O)O)cc3)C(F)(F)F)ccc21 [CB36493, (E) 4-[1-trifluoromethyl-2-(5,6,7,8-tetrahydro-5,5,8,8-tetramethyl-2-naphthalenyl)-1-ethenyl]benzoic acid] | 21.4% | 116% | 134% | – | 1.6% | 91% | 15% | 1% | induce a transactivation mediated by the three receptors | 17 to 32% | 0% | 89.9% | 87.2% | permit a transrepression of a controlled gene by an ERE | 38% | 38 to 46% | 26% | exert an inhibitor effect comparable to that of the effect of CB28628 | – |
| C/C(=C\c1cc2c(cc1C)C(C)(C)CCC2(C)C)c1ccc(C(=O)O)cc1 [CB71802] | 14.3% | 113% | 132% | – | 1% | – | – | – | – | 32 to 48% | 37% | 69.7% | 65.6% | – | – | – | – | – | inhibition at 0.01 µM [2, 12]: 5%; effect on cellular increase, A-427 (in words) [3]: inhibits the increase of these two pulmonary lineages the most strongly |
| Cc1cc2c(cc1C(=O)c1ccc(C(=O)O)cc1)C(C)(C)CCC2(C)C [LGD-CB14499, reference compound] | – | – | – | – | – | 42% | 12% | 4% | transcriptional power appears higher notably through the RARβ-ERcassette | – | – | – | – | inactive | 17% | – | – | causes an inhibition of the AP-1 route | activity at 0.01 µM [1]: 88.2%; activity at 1 µM [1]: 82.7%; activity at 100 µM [1]: 1.3%; inhibition at 0.1 µM [2, 8]: 0%; inhibition at 1 µM [2, 8]: 0%; GAL4-RAR RARα transactivation ([7]; 10^-7 M): 4%; GAL4-RAR RARα transactivation ([7]; 10^-8 M): 1%; inhibition at 0.1 µM [4, 9]: 17 to 30% |
